Consider 28 compounds from US10654837B2, “Sulphamoylaryl derivatives and use thereof as medicaments for the treatment of liver fibrosis” (Janssen Pharmaceutica NV, priority 2017, dated 2020).

Usually IC50 stands for the point on the concentration scale where inhibition reaches its midpoint.

In this test the target is T1, 5HTR2B (Homo sapiens, UniProt P41595).
T1 construct: host or cells: human Maverick/293 cells
T1 sequence (P41595 whole entry): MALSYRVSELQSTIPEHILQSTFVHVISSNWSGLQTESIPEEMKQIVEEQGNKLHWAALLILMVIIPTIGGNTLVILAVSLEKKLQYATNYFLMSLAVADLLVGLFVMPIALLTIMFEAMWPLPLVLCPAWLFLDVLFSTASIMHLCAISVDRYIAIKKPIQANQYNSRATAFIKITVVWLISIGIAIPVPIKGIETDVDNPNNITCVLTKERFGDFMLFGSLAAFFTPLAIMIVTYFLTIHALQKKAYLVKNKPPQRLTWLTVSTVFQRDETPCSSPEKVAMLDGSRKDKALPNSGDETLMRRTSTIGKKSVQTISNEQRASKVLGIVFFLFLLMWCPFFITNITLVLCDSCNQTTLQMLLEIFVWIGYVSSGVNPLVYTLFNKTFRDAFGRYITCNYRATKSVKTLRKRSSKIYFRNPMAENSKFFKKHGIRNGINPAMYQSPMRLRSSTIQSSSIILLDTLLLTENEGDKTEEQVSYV
In words: 5HTR2B antagonist activity, calcium mobilization assay in human Maverick/293 cells (serotonin as agonist). The class given is cell-based. The note with it: intracellular calcium, emission 525 nm, read-out: Ca assay IC50. In outline: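 Serum-starved (2 h) human Maverick/293 cells loaded with calcium dye for 50 min at 37 °C, then antagonist preincubated 15-30 min before serotonin challenge. Calcium fluorescence (ex 485/em 525 nm) recorded for 80 s; peak-based % inhibition fitted sigmoidally for IC50.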
For orientation: Calcium flux is commonly read through the fluorescence of an indicator in the cells.
For the compound `COc1ccc(S(=O)(=O)N[C@H]2CCOC2)cc1C(=O)Nc1ccccc1C1CC1` [Compound 151, (S)—N-(2-Cyclopropylphenyl)-2-methoxy-5-(N-(tetrahydrofuran-3-yl)sulfamoyl) benzamide], the IC50 was 39 nM.

Take `COc1ccc(S(=O)(=O)N[C@H]2C[C@H](O)C2)cc1C(=O)Nc1ccccc1Cl` [Compound 154]: the IC50 came to 0.6 nM.

For `COc1ccc(S(=O)(=O)N[C@H]2C[C@@H](O)C2)cc1C(=O)Nc1ccccc1Cl` [Compound 155, N-(2-Chlorophenyl)-5-(N-((cis)-3-hydroxycyclobutyl)sulfamoyl)-2-methoxy benzamide], the half-maximal inhibitory concentration (IC50) came out at 0.2 nM.

Turning to `COc1ccc(S(=O)(=O)N[C@H]2C[C@H](O)C2)cc1C(=O)Nc1ccc(F)cn1` [Compound 156], the concentration for half-maximal inhibition (IC50) turned out to be 159 nM.

Take `COc1ccc(S(=O)(=O)N[C@H]2C[C@@H](O)C2)cc1C(=O)Nc1ccc(F)cn1` [Compound 157, N-(5-Fluoropyridin-2-yl)-5-(N-((cis)-3-hydroxycyclobutyl)sulfamoyl)-2-methoxybenzamide]: the IC50 was determined as 53 nM.

On to `COc1ccc(S(=O)(=O)N[C@H]2CCOC2)cc1C(=O)Nc1ccc(F)cc1` [Compound 158, (S)—N-(4-Fluorophenyl)-2-methoxy-5-(N-(tetrahydrofuran-3-yl)sulfamoyl) benzamide], for which the IC50 is 0.17 nM.

Regarding `COc1ccc(S(=O)(=O)N[C@H]2CCOC2)cc1C(=O)Nc1cccc(C)c1` [Compound 159], the IC50 was determined as 0.7 nM.

For `COc1ccc(S(=O)(=O)N[C@H]2CCOC2)cc1C(=O)Nc1ccc(F)c(C(F)(F)F)c1` [Compound 160, (S)—N-(4-Fluoro-3-(trifluoromethyl)phenyl)-2-methoxy-5-(N-(tetrahydrofuran-3-yl)sulfamoyl)benzamide], the IC50 turned out to be 4.6 nM.

Turning to `COc1ccc(S(=O)(=O)N[C@H]2CCOC2)cc1C(=O)Nc1cc(C)c(F)cn1` [Compound 161, (S)—N-(5-Fluoro-4-methylpyridin-2-yl)-2-methoxy-5-(N-(tetrahydrofuran-3-yl)sulfamoyl)benzamide], the half-maximal inhibitory concentration (IC50) came to 79 nM.

With `COc1ccc(S(=O)(=O)N[C@H]2CCOC2)cc1C(=O)Nc1ccc(F)c(C2CC2)n1` [Compound 162, (S)—N-(6-Cyclopropyl-5-fluoropyridin-2-yl)-2-methoxy-5-(N-(tetrahydrofuran-3-yl)sulfamoyl)benzamide], the IC50 was 0.5 nM.

Consider `COc1ccc(S(=O)(=O)N[C@H]2CCOC2)cc1C(=O)Nc1ccccc1C` [Compound 163, (S)-2-Methoxy-5-(N-(tetrahydrofuran-3-yl)sulfamoyl)-N-(o-tolyl)benzamide], for which the half-inhibitory concentration (IC50) was found to be 0.9 nM.

In the case of `COc1ccc(S(=O)(=O)N[C@H]2CCOC2)cc1C(=O)Nc1ccccc1C#N` [Compound 164], the IC50 was 1.1 nM.

As to `COc1ccc(S(=O)(=O)N[C@H]2CCOC2)cc1C(=O)Nc1ccncn1` [Compound 165, (S)-2-Methoxy-N-(pyrimidin-4-yl)-5-(N-(tetrahydrofuran-3-yl)sulfamoyl) benzamide], the IC50 amounted to 511 nM.

Regarding `COc1ccccc1NC(=O)c1cc(S(=O)(=O)N[C@H]2CCOC2)ccc1OC` [Compound 166, (S)-2-Methoxy-N-(2-methoxyphenyl)-5-(N-(tetrahydrofuran-3-yl)sulfamoyl) benzamide], the 50% inhibitory concentration (IC50) stood at 0.16 nM.

With `COc1ccc(S(=O)(=O)N[C@H]2CCOC2)cc1C(=O)Nc1ccc(F)c(C(F)F)c1` [Compound 167, (S)—N-(3-(Difluoromethyl)-4-fluorophenyl)-2-methoxy-5-(N-(tetrahydrofuran-3-yl)sulfamoyl)benzamide], the IC50 was determined as 0.32 nM.

For `COc1ccc(S(=O)(=O)NC2(C(F)(F)F)CC2)cc1C(=O)Nc1ccc(F)c(C)n1` [Compound 168, N-(5-fluoro-6-methylpyridin-2-yl)-2-methoxy-5-(N-(1-(trifluoromethyl)cyclopropyl)sulfamoyl)benzamide], the half-inhibitory concentration (IC50) stood at 3.9 nM.

Take `COc1ccc(S(=O)(=O)NC2CNC2)cc1C(=O)Nc1ccc(F)c(C)n1` [Compound 169, 5-(N-(Azetidin-3-yl)sulfamoyl)-N-(5-fluoro-6-methylpyridin-2-yl)-2-Methoxy benzamide]: the IC50 turned out to be 65 nM.

For `COc1ccc(S(=O)(=O)NC2CN(C)C2)cc1C(=O)Nc1ccc(F)c(C)n1` [Compound 170, N-(5-Fluoro-6-methylpyridin-2-yl)-2-methoxy-5-(N-(1-methylazetidin-3-yl)sulfamoyl)benzamide], the IC50 came to 58 nM.

Regarding `COc1ccc(S(=O)(=O)N[C@H]2CCOC2)cc1C(=O)Nc1nc(C)c(F)c(Cl)n1` [Compound 171, (S)—N-(4-chloro-5-fluoro-6-methylpyrimidin-2-yl)-2-methoxy-5-(N-(tetrahydrofuran-3-yl)sulfamoyl)benzamide], the IC50 was 106 nM.

Regarding `COc1ccc(S(=O)(=O)N[C@H]2CCOC2)cc1C(=O)Nc1ncc(F)c(C)n1` [Compound 172, (S)—N-(5-fluoro-4-methylpyrimidin-2-yl)-2-methoxy-5-(N-(tetrahydrofuran-3-yl)sulfamoyl)benzamide], the half-inhibitory concentration (IC50) was 33 nM.

As for `COc1ccc(S(=O)(=O)N[C@H]2C[C@@H](O)C2)cc1C(=O)Nc1ccc(F)c(C)c1F` [Compound 173, N-(2,4-Difluoro-3-methylphenyl)-5-(N-((cis)-3-hydroxycyclobutyl)sulfamoyl)-2-methoxybenzamide], the IC50 was 0.8 nM.

For `COc1ccc(S(=O)(=O)N[C@H]2C[C@H](O)C2)cc1C(=O)Nc1ccc(F)c(C(F)F)n1` [Compound 174a, N-(6-(Difluoromethyl)-5-fluoropyridin-2-yl)-5-(N-((trans)-3-hydroxycyclobutyl)sulfamoyl)-2-methoxybenzamide], the IC50 is 3.9 nM.

Regarding `COc1ccc(S(=O)(=O)N[C@H]2C[C@@H](O)C2)cc1C(=O)Nc1ccc(F)c(C(F)F)n1` [Compound 174b, N-(6-(Difluoromethyl)-5-fluoropyridin-2-yl)-5-(N-((cis)-3-hydroxycyclobutyl)sulfamoyl)-2-methoxybenzamide], the IC50 is 1.7 nM.

Regarding `COc1ccc(S(=O)(=O)N[C@H]2CCNC2)cc1C(=O)Nc1ccc(F)c(C)n1` [Compound 175, (S)—N-(5-Fluoro-6-methylpyridin-2-yl)-2-methoxy-5-(N-(pyrrolidin-3-yl)sulfamoyl)benzamide], the 50% inhibitory concentration (IC50) amounted to 1.6 nM.

Turning to `COc1ccc(S(=O)(=O)N[C@H]2CCN(C)C2)cc1C(=O)Nc1ccc(F)c(C)n1` [Compound 176, (S)—N-(5-Fluoro-6-methylpyridin-2-yl)-2-methoxy-5-(N-(1-methylpyrrolidin-3-yl)sulfamoyl)benzamide], the IC50 was determined as 5 nM.

In the case of `COc1ccc(S(=O)(=O)N[C@@H]2CCNC2)cc1C(=O)Nc1ccc(F)c(C)n1` [Compound 177, (R)—N-(5-Fluoro-6-methylpyridin-2-yl)-2-methoxy-5-(N-(pyrrolidin-3-yl)sulfamoyl)benzamide], the IC50 amounted to 4.2 nM.

Consider `COc1ccc(S(=O)(=O)N[C@H]2CCNC2)cc1C(=O)Nc1ccc(F)cc1` [Compound 178, (S)—N-(4-Fluorophenyl)-2-methoxy-5-(N-(pyrrolidin-3-yl)sulfamoyl)benzamide], for which the IC50 is 0.3 nM.

On to `COc1ccc(S(=O)(=O)N[C@H]2CCNC2)cc1C(=O)Nc1ccccc1Cl` [Compound 179, (S)—N-(2-Chlorophenyl)-2-methoxy-5-(N-(pyrrolidin-3-yl)sulfamoyl)benzamide], for which the IC50 was 0.1 nM.
